Laboratory results taken from article PMC6326523, “A high-throughput screen to identify novel small molecule inhibitors of the Werner Syndrome Helicase-Nuclease (WRN)” (PLoS ONE, 2019).
Like-named read-outs stand apart in the source and are kept apart here.

Assays:
full-length WRN helicase = target: T1, full-length WRN helicase (Homo sapiens, UniProt Q14191); assay: Radiometric helicase inhibitor assay, full-length WRN unwinding of FORKR DNA substrate; assay type: biochemical; settings: FORKR 0.5 nM; for remaining activity at 50 µM: 50 μM compound, read-out: % Control WRN Helicase Activity;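 as to all read-outs here: WRN preincubated with compound 15 min at room temperature, then unwinding run 15 min at 37 °C with 2 mM ATP, relative to WRN unwinding without compound (100%)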
T1 construct: Full length recombinant WRN [18], BLM [19], and FANCJ [20] proteins were purified from insect cells; made in house; host or cells: insect cells
T1 sequence (Q14191 whole entry): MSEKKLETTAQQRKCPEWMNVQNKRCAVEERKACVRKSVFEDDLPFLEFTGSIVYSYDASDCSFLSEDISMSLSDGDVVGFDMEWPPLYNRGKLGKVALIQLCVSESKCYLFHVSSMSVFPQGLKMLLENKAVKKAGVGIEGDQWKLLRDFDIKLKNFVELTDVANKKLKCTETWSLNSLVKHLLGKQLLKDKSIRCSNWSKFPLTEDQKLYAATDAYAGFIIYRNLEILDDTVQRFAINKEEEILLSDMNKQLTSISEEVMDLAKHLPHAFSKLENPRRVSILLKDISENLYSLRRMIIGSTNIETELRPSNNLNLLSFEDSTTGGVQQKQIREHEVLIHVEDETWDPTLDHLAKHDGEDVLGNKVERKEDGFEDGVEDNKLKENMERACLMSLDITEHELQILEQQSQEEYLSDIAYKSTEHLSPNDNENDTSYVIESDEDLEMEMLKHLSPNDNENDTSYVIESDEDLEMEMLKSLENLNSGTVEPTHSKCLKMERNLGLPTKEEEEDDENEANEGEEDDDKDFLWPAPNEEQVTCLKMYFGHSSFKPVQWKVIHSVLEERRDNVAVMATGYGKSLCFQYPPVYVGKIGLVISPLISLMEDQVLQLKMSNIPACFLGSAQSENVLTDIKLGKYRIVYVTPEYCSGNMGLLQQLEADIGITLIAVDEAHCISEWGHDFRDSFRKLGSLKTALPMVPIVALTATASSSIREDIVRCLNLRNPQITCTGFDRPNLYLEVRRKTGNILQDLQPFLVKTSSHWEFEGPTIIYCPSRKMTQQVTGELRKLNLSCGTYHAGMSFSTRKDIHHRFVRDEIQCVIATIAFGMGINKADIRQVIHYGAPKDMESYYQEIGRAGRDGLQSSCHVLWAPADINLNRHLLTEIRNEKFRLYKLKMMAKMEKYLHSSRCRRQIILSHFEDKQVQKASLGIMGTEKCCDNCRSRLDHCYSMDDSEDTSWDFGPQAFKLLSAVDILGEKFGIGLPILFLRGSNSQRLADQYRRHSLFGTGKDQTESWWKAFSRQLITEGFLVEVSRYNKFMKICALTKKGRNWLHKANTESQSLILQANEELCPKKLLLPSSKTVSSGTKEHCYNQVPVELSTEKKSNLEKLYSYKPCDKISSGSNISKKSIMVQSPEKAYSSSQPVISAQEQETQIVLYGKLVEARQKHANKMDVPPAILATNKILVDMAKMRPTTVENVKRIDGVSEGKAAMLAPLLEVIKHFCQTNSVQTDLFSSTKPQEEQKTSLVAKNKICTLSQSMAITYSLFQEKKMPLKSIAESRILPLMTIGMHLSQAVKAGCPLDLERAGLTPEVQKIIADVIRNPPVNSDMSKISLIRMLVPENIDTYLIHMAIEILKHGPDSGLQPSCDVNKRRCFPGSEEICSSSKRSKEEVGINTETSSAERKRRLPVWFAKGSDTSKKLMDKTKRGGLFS
Protocol: The compounds were tested at a single concentration of 50 μM in the radiometric helicase assay with full-length recombinant WRN protein (1 nM) and the FORKR DNA substrate (0.5 nM) as described in the Materials and Methods section.
For each compound, we performed titrations over a wide range of concentrations with a fixed concentration of full-length WRN protein (1 nM), and quantitated unwinding as a percentage of full-length WRN unwinding of the FORKR DNA substrate (0.5 nM) in the absence of compound (Fig 6A and 6B, S3 Fig). […] In addition to determining an IC50 value for each compound, we also conducted helicase assays to determine the reversibility of inhibition by each compound tested. […] The reaction was diluted 100-fold with the addition of DNA substrate (0.5 nM final concentration) and ATP (2 mM final concentration) and unwinding was measured (Fig 7A–7D, S4 Fig). Inhibition was either classified as reversible, partially reversible, minimally reversible, or irreversible based on the ability of helicase activity to recover after dilution of the compound 100-fold.

[1] = target: T2, full-length WRN exonuclease activity (Homo sapiens, UniProt Q14191); assay: WRN exonuclease activity on radiolabeled FORKR DNA substrate; assay type: biochemical; settings: WRN 20 nM, FORKR 1 nM; for Inhibition of WRN exonuclease activity: same concentration range as activity against WRN helicase
T2 construct: Full length recombinant WRN [18], BLM [19], and FANCJ [20] proteins were purified from insect cells; made in house; host or cells: insect cells
T2 sequence (Q14191 whole entry): as above
Protocol: Fig 8 Specificity of selected compounds for inhibiting full-length WRN helicase activity. […] (B) Gel image of full-length WRN (20 nM) exonuclease activity on the radiolabeled FORKR DNA substrate (1 nM) in the presence of increasing concentrations of NCGC00029283-03, NCGC00063279-03 and NCGC00357377-01 (0–200 μM).
(§1) Three compounds identified from the cherry-picked set were tested for their effects on WRN exonuclease activity (20 nM) on the FORKR DNA substrate (1 nM) as well as DNA unwinding by full-length BLM (0.1 nM) and FANCJ (5 nM) helicases, which belong to the same Superfamily 2 as WRN [25], to assess their specificity for inhibition of WRN-catalyzed unwinding of the FORKR DNA substrate (0.5 nM). […] Nonetheless, these two compounds were also further tested in cell-based assays to assess their effects on proliferation.

U2-OS cells = assay: U2-OS cell proliferation assay (WST-1); assay type: cell-based, human; settings: 100 μM; for Effect on proliferation of U2-OS cells: Day 0 through Day 3
Protocol: WRN inhibitors were diluted in DMSO to a concentration 100-fold higher than their final concentrations. U2-OS cells in culture were counted, spun down and resuspended to 35,000 cells/mL in DMEM with 10% FBS and Pen/Strep antibiotic. For each cell condition, 15 μL of DMSO or inhibitor was added to 1.5 ml of U2-OS cells in DMEM or DMEM alone. One hundred μL of each cell condition was plated in triplicate on each of four 96-well plates representing days 0–3. Ten μL of WST-1 cell proliferation reagent (Roche) was added to the day 0 plate and readings were taken 2 hr later using a plate reader set to 450 nm. WST-1 cell proliferation reagent was added to plates on days 1–3 and readings were taken after 2 hr incubation. Percent cell proliferation was normalized to cells in the presence of DMSO with the background OD450 of DMEM with each drug subtracted out.
Fig 9 Effects of WRN helicase inhibitors on cancer cell proliferation. (A) Cell proliferation of HeLa 1.2.11 cells treated with 50 μM NCGC00029283-03, NCGC00063279-03, NCGC00357377-01 and NSC 617145 (positive control) or vehicle (DMSO) on Day 0 and Day 3 as measured using the WST-1 cell proliferation reagent. (B) Cell proliferation of U2-OS cells treated with increasing amounts of NCGC00029283-03 (0–100 μM) from Day 0 through Day 3. (C) Cell proliferation of U2-OS cells treated with increasing amounts of NCGC00063279-03 (0–100 μM) from Day 0 through Day 3. (D) Cell proliferation of U2-OS cells treated with 100 μM NCGC00357377-01 from Day 0 through Day 3.
HeLa cells are characterized by reduced expression of wild-type p53 as well as an inability to increase p53 levels after DNA damage due to human papillomavirus (HPV) elements. This raised the possibility that p53 status may play a role in the ability of small molecule WRN helicase inhibitors to affect cell proliferation. In addition, HeLa 1.2.11 cells are characterized by relatively long telomeres and use telomerase to maintain telomere length. Since WRN is implicated in the Alternative Lengthening of Telomeres (ALT) pathway, cells that are dependent on the ALT pathway may be more sensitive to WRN inhibitors as well. To address this possibility, we treated U2-OS osteosarcoma cells (which express wild-type p53 and utilize the ALT pathway for keeping very long telomeres) with all three compounds. In this case, we observed a 50% reduction in U2-OS cell proliferation two days after initial exposure to NCGC00029283-03 (100 μM).

full-length BLM helicase = target: T3, full-length BLM helicase (Homo sapiens, UniProt P54132); assay: Radiometric helicase assay, full-length BLM; assay type: biochemical; settings: for IC50: full-length BLM 0.1 nM, FORKR 0.5 nM
T3 construct: Full length recombinant WRN [18], BLM [19], and FANCJ [20] proteins were purified from insect cells; made in house; host or cells: insect cells
T3 sequence (P54132 whole entry): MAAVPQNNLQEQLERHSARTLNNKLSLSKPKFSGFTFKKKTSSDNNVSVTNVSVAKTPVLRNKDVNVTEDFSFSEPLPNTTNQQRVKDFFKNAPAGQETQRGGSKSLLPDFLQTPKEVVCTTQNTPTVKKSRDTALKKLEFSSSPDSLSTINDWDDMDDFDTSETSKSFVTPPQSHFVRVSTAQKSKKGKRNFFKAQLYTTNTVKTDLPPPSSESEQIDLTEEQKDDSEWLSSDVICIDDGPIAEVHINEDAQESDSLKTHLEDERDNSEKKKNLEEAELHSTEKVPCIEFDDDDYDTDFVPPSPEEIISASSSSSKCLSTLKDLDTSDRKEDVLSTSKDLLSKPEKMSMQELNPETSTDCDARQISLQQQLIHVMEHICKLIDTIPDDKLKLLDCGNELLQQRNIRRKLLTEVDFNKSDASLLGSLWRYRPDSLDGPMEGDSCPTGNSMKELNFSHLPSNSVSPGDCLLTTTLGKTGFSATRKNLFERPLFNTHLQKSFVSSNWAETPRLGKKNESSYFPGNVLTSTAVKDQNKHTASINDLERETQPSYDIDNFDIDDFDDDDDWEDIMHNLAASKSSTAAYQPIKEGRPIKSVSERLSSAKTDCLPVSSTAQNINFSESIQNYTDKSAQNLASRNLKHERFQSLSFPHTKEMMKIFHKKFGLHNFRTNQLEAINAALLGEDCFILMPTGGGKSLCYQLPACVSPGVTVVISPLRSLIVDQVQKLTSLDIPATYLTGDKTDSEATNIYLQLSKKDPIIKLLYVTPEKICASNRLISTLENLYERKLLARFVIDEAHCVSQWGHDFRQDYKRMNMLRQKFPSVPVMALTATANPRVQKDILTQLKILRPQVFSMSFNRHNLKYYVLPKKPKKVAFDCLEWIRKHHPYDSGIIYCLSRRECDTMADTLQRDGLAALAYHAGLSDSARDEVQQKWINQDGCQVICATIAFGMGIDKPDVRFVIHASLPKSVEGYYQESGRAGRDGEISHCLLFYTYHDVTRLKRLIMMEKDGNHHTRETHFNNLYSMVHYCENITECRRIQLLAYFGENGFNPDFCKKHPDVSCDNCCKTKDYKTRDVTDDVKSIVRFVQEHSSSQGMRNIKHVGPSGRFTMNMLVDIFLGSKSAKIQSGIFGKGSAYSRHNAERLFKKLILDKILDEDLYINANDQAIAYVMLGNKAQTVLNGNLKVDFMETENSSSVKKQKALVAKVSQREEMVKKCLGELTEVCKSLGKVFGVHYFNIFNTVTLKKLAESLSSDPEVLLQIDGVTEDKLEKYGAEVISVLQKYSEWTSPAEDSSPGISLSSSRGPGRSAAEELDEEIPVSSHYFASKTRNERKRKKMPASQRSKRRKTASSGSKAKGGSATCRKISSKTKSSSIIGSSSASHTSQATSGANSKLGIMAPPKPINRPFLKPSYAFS
Protocol: Fifteen μL of reaction buffer was added to a microcentrifuge tube followed by the addition of 1 μL of selected compounds (0.5–100 μM final concentration) or DMSO. One μL of WRN (full length), RECQ1, FANCJ, BLM or control was added to each reaction and incubated at room temperature for 15 min. Three μL of substrate (0.5 nM FORKR and 2 mM ATP final concentrations) were added to all reactions which were incubated at 37°C for 15 min. Reactions were stopped with the addition of 20 μL of 2X STOP dye containing EDTA, glycerol, bromphenol blue and xylene cyanol. Samples were electrophoresed for 1.5 hr at 200 V on a 12% non-denaturing PAGE gel in 1X TBE Buffer.
as §1
Supplementary file pone.0210525.s005.TIF: S5 Fig Specificity of select WRN inhibitors for inhibition of other human helicases. (A) Quantitation of full-length BLM helicase (0.1 nM) activity on the FORKR DNA substrate (0.5 nM) with increasing concentration of each compound (0–100 μM). (B) Quantitation of full-length FANCJ (5 nM) helicase activity on the FORKR DNA substrate (0.5 nM) with increasing concentration of each compound (0–100 μM). (TIF) Click here for additional data file.

[2] = target: T4, WRN helicase domain fragment (Homo sapiens, UniProt Q14191); assay: WRN-hel-f2 protocol qHTS confirmatory (15 compound confirmatory assay); assay type: biochemical; settings: NA = Not Active
T4 construct: GST (N); made in house
T4 sequence (Q14191 500-946): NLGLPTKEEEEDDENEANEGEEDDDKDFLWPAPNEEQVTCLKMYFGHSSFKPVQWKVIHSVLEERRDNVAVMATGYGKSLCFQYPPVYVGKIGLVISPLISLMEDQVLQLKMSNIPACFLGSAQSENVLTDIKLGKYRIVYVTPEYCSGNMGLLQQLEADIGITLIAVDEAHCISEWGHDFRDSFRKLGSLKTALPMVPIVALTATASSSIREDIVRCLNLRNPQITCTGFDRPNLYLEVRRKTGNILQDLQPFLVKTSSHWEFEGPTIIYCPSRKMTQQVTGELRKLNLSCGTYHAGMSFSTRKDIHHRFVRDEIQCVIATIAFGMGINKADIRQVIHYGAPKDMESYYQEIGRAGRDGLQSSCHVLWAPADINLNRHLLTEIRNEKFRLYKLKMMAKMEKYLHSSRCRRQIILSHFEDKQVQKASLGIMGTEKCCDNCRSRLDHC
Protocol: The structures of the members of this collection are available in the PubChem portal https://pubchem.ncbi.nlm.nih.gov/. For both the 350,000 small molecule collection and the LOPAC^1280 screens, 3 μL of GST-WRN500-946 or reaction buffer only were dispensed using a solenoid-valve nanoliter dispenser into a black 1536-well plate (Greiner). Twenty three nL of each serially diluted compound (0.08–50 μM for the LOPAC screen and 0.003–114 μM for the larger library screen) or control were added to each well using a Kalypsys pintool equipped with a 1536-pin array. Plates were incubated at room temperature for 15 min, followed by initiation of the reactions via the addition of 1 μL of substrate (100 nM FORKF and 2 mM ATP final concentrations). Plates were transferred to a ViewLux high-throughput CCD imager and fluorescence was measured in kinetic mode using an excitation filter of 525 nm and emission filter of 598 nm.

[3] = radiometric assay, full-length WRN 1 nM, compound 0-100 μM, read-out: IC50
[4] = resynthesized or repurified compounds, full-length WRN, read-out: IC50 (μM): WRN

SMILES | remaining activity at 50 µM (full-length WRN helicase; full-length WRN 1 nM) [%] | IC50 (full-length WRN helicase; [3]) [µM] | IC50 (full-length WRN helicase; [4]) [µM] | Inhibition of WRN exonuclease activity at 200 μM [1] | Inhibition of WRN exonuclease activity [1] | Effect on proliferation of U2-OS cells (U2-OS cells; listed as NCGC00357377) | Effect on proliferation of U2-OS cells (U2-OS cells; listed as NCGC00357377-01) | IC50 for WRN helicase inhibition fold less than that observed for BLM (full-length BLM helicase; WRN vs BLM) [fold] | IC50 (full-length BLM helicase) [µM] | IC50 [2] [µM] | Effect on proliferation of U2-OS cells (U2-OS cells) | Reduction in U2-OS cell proliferation (U2-OS cells; two days after initial exposure) [%] | Reduction in U2-OS cell proliferation (U2-OS cells; after three days exposure) [%]
Cc1ccc(-c2csc(NS(=O)(=O)c3cccc(F)c3)n2)o1 [MLS002251300-02] | 1 | 4 | 5 ± 1.4 | some ability to inhibit | unable to inhibit | did not reduce cell proliferation | did not have any effect | 2.5 | 13 ± 2.6 | 20 |  |  | 
COc1ccc2nc(O)c(-c3noc(-c4ccc(F)cc4)n3)cc2c1 [NCGC00029283-02] | 6 | 3 | 2.3 ± 0.6 | some ability to inhibit | unable to inhibit |  |  |  | 12.5 ± 1.8 | 0.45 | also detectable after three days | 50 | 
COc1ccc2nc(O)c(-c3noc(-c4ccccc4)n3)cc2c1 [NCGC00063279-02] | 18 | 12 | 13 ± 3.6 | some ability to inhibit | unable to inhibit |  |  |  | 46.1 | 2.5 |  |  | 40
